Test results published in patent US20250360137A1, “ENHANCEMENT OF THE EFFICACY OF SEROTONERGIC PSYCHEDELIC DRUGS IN THE TREATMENT OR PREVENTION OF CERTAIN NEUROPSYCHIATRIC DISORDERS THROUGH INHIBITION OF TYPE-9 PHOSPHODIESTERASES” (Freedom Biosciences, Inc., priority 2022, published 2025).

Tested on: C57B6/J mice
Experiment: Psilocybin induced head twitch response (HTR) in mice, automated system with implanted ear magnets
Assay type: in vivo
Experimental: Illustrated herein is a dose-dependent decrease in hallucinogenic response (head-twitch response, HTR) to psilocybin administration by adding a PDE9 inhibitor.
In this experiment, it was determined whether the number of head twitches in 10 minutes in response to psilocybin administration in 7-10 week old C57B6/J mice (equal numbers of male and female) were reduced by PF-4447943, a prototypical PDE9 inhibitor. The experiment began with the mice receiving a 20-minute pretreatment with PF-4447943 or its associated vehicle (5% Cremophor, 5% dimethyl sulfoxide (DMSO), and 90% saline) followed by the test dose of psilocybin. Head twitch was assessed for 10 minutes in an automated system using implanted magnets in the mouse's ears. At least one week elapsed prior to reuse, and mice were used maximally twice. […] For instance, average HTR over 10 min in mice receiving 3 mg/kg psilocybin and no PF-4447943 was about 30, while average HTR over 10 min in mice receiving 3 mg/kg psilocybin plus 3 mg/kg PF-4447943 was about 20.
In another experiment, a psilocybin dose-response curve was generated in the presence and absence of a fixed dose of pre-administered PF-4447943. FIG. 2 depicts the results of HTR in mice receiving administration of a fixed dose of PF-4447943 (3 mg/kg IP) and various doses of psilocybin (0, 0.3, 1, 3, 10 mg/kg IP), in comparison with administration of psilocybin plus the PF-4447943 vehicle alone as a control.

| SMILES | average HTR over 10 min (mice receiving 3 mg/kg psilocybin and no PF-4447943 (vehicle pretreatment), FIG. 1) | HTR after psilocybin following pretreatment with PF-4447943 compared to pretreatment with the PF-4447943 vehicle (20-minute pretreatment, head twitch assessed for 10 minutes, FIG. 1) | average HTR over 10 min (mice receiving 3 mg/kg psilocybin plus 3 mg/kg PF-4447943 (20-minute pretreatment), FIG. 1) | reduction of HTR (pretreatment with 3 mg/kg PF-4447943 IP, across all doses of psilocybin (0, 0.3, 1, 3, 10 mg/kg IP) vs psilocybin plus vehicle, FIG. 2) |
| --- | --- | --- | --- | --- |
| CN(C)CCc1c[nH]c2cccc(OP(=O)(O)O)c12 [psilocybin, [3-[2-(dimethylamino)ethyl]-1H-indol-4-yl]dihydrogen phosphate] | about 30 | – | – | – |
| C[C@@H]1CN(Cc2ncccn2)C[C@H]1c1nc2c(cnn2C2CCOCC2)c(=O)[nH]1 [PF-4447943, 6-[(3S,4S)-4-methyl-1-(pyrimidin-2-ylmethyl)pyrrolidin-3-yl]-1-(tetrahydro-2H-pyran-4-yl)-1,5-dihydro-4H-pyrazolo[3,4-d]pyrimidin-4-one] | – | reduced | about 20 | about 40% |
